This note sets out measurements from US20240351997A1, “NOVEL PARP7 INHIBITOR AND USE THEREOF” (SHANGHAI QILU PHARMACEUTICAL RESEARCH AND DEVELOPMENT …, priority 2021, published 2024).

By IC50 is commonly meant the concentration at which inhibition is half-maximal.

Chain of PARP7 (Q7Z3E1 whole entry): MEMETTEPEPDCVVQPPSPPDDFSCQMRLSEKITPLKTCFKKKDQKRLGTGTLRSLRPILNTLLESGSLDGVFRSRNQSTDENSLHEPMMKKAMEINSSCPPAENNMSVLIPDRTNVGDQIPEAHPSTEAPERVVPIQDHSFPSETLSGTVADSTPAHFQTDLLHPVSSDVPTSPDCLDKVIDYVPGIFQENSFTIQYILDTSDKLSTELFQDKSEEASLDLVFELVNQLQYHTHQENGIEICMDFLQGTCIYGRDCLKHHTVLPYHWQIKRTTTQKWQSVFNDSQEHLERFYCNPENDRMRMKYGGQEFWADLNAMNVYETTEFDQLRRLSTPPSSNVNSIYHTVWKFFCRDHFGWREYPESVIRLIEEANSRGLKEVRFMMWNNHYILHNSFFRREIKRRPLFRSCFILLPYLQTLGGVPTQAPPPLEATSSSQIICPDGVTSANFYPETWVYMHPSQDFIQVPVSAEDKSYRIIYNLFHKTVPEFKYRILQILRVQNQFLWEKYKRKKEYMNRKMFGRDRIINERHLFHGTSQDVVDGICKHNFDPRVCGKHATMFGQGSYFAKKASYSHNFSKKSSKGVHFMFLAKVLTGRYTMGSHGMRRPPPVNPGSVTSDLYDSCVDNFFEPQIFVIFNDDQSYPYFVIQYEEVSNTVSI

This assay addresses PARP7 (Homo sapiens (Human), UniProt Q7Z3E1). Nature of the assay: In vitro enzymology experiment of PARP7 (enzymatic inhibition). In kind it is biochemical. On the procedure: II. In Vitro Enzymology Experiment of PARP2, 3, 5A, 5B, 7, 12, and 15
1. Preparation of 384-well histone-coated plate: 25 μL of histone solution was added to each well, and the plate was incubated overnight at 4° C.
2. Preparation of PBST buffer, blocking buffer, and assay buffer
3. The 384-well histone-coated plate was washed three times with PBST buffer. The plate was blocked by 50 μL of blocking buffer for 1 hour at room temperature. The plate was then washed three times with PBST buffer.
2000× compound was prepared in a 96-well source plate. 50 nL of the compound was transferred from the source plate to a 96-well intermediate plate, and 39.95 μL of assay buffer was added to each well. The plate was shaken well and centrifuged at 1000 rpm for 1 minute.
5 μL of compound DMSO solution was transferred to each well.
An enzyme mixture was incubated at 25° C. for 10 minutes.
10 μL of the enzyme mixture was added, and incubated with the compound at room temperature for 10 minutes.
10 μL of assay buffer was added to the negative control well of the assay plate.
The plate was then washed three times with PBST buffer.
25 μL of Stre-HRP was added.
The plate was incubated at room temperature for 1 hour and washed three times with PBS buffer.
25 μL of QuantaRed Enhancer mix was added. The plate was incubated for 10 minutes.
2.5 μL of QuantaRed Stop Solution was added to terminate the peroxidase reaction, and the plate was shaken for 10 to 30 seconds.
7. Paradigm was used to read the plate immediately to detect the readings at Ex550/Em620.
Using equation (1) to fit the data in Excel to obtain inhibition values
Using equation (2) to fit the data in XL-Fit to obtain IC50 values
Y is the percentage of inhibition, and X is the compound concentration.
For `C[C@@H]1CN(C(=O)OCCc2c[nH]c(=O)c(C(F)(F)F)c2)C[C@H](C)N1c1ncc(C2CC2)cn1` [Example 181, 2-(6-Oxo-5-(trifluoromethyl)-1,6-dihydropyridin-3-yl)ethyl (3S,5R)-4-(5-cyclopropylpyrimidin-2-yl)-3,5-dimethylpiperazine-1-carboxylate], the IC50 stood at 1.3 nM. Consider `C[C@@H]1CN(c2ncc(C(F)(F)F)cn2)CCN1C(=O)O[C@@H](C)Cc1c[nH]c(=O)c(C(F)(F)F)c1` [Example 91, (S)-1-(6-Oxo-5-(trifluoromethyl)-1,6-dihydropyridin-3-yl)propan-2-yl (R)-2-methyl-4-(5-(trifluoromethyl)pyrimidin-2-yl)piperazine-1-carboxylate], for which the IC50 turned out to be 0.78 nM. Regarding `Cc1cnc(N2CCN(C(=O)O[C@@H](C)Cc3c[nH]c(=O)c(C(F)(F)F)c3)CC2)nc1` [Example 84, (S)-1-(6-Oxo-5-(trifluoromethyl)-1,6-dihydropyridin-3-yl)propan-2-yl 4-(5-methylpyrimidin-2-yl)piperazine-1-carboxylate], the IC50 came out at 0.52 nM. For `CC(Cc1c[nH]c(=O)c(C(F)(F)F)c1)OC(=O)N1CCN(c2ccc(C(F)(F)F)cn2)CC1` (stereo not shown) [Example 62, 1-(6-Oxo-5-(trifluoromethyl)-1,6-dihydropyridin-3-yl)propan-2-yl 4-(5-(trifluoromethyl)pyridin-2-yl)piperazine-1-carboxylate], the IC50 came to 2.09 nM. As to `COC[C@@H]1CN(c2ncc(C(F)(F)F)cn2)CCN1C(=O)OCCc1c[nH]c(=O)c(C(F)(F)F)c1` (stereo in doubt) [Example 129, 2-(6-Oxo-5-(trifluoromethyl)-1,6-dihydropyridin-3-yl)ethyl 2-(methoxymethyl)-4-(5-(trifluoromethyl)pyrimidin-2-yl)piperazine-1-carboxylate], the IC50 was 0.39 nM. In turn, `C[C@@H](Cc1c[nH]c(=O)c(C(F)(F)F)c1)OC(=O)N1CCN(c2ncc(C(F)(F)F)s2)CC1` [Example 49, (S)-1-(6-Oxo-5-(trifluoromethyl)-1,6-dihydropyridin-3-yl)propan-2-yl 4-(5-(trifluoromethyl)thiazol-2-yl)piperazine-1-carboxylate] had a half-maximal inhibitory concentration (IC50) of 0.76 nM. In turn, `Cc1cnc(N2C[C@H](C)N(C(=O)OCCc3c[nH]c(=O)c(C(F)(F)F)c3)C[C@H]2C)nc1` [Example 166, 2-(6-Oxo-5-(trifluoromethyl)-1,6-dihydropyridin-3-yl)ethyl (2S,5R)-2,5-dimethyl-4-(5-methylpyrimidin-2-yl)piperazine-1-carboxylate] came in with an IC50 of 0.65 nM. The result for `C[C@@H]1CN(c2ncc(C3CC3)cn2)[C@H](C)CN1C(=O)O[C@@H](C)Cc1c[nH]c(=O)c(C(F)(F)F)c1` [Example 179, (S)-1-(6-Oxo-5-(trifluoromethyl)-1,6-dihydropyridin-3-yl)propan-2-yl (2R,5R)-4-(5-cyclopropylpyrimidin-2-yl)-2,5-dimethylpiperazine-1-carboxylate] reads 1 nM. In turn, `Cc1ccc(OC(=O)N2CCN(c3ncc(C(F)(F)F)cn3)CC2)cc1-c1c[nH]c(=O)c(C(F)(F)F)c1` [Example 135, 4-Methyl-3-(6-oxo-5-(trifluoromethyl)-1,6-dihydropyridin-3-yl)phenyl 4-(5-(trifluoromethyl)pyrimidin-2-yl)piperazine-1-carboxylate] showed an IC50 of 2.78 nM. With `C[C@@H]1CN(c2ncc(C(F)(F)F)cn2)C[C@@H](C)N1C(=O)OCCc1c[nH]c(=O)c(C(F)(F)F)c1` [Example 148, 2-(6-Oxo-5-(trifluoromethyl)-1,6-dihydropyridin-3-yl)ethyl (2R,6R)-2,6-dimethyl-4-(5-(trifluoromethyl)pyrimidin-2-yl)piperazine-1-carboxylate], the midpoint of inhibition, the IC50, lay at 0.77 nM. For the molecule `C[C@@H]1CN(C(=O)O[C@@H](C)Cc2c[nH]c(=O)c(C(F)(F)F)c2)[C@@H](C)CN1c1ncc(C(F)(F)F)cn1` [Example 160, (S)-1-(6-Oxo-5-(trifluoromethyl)-1,6-dihydropyridin-3-yl)propan-2-yl (2S,5R)-2,5-dimethyl-4-(5-(trifluoromethyl)pyrimidin-2-yl)piperazine-1-carboxylate], the IC50 was determined as 1.3 nM. `C[C@@H]1CN(c2ncc(C(F)(F)F)cn2)C[C@H](C)N1C(=O)OCCc1c[nH]c(=O)c(C(F)(F)F)c1` [Example 150, 2-(6-Oxo-5-(trifluoromethyl)-1,6-dihydropyridin-3-yl)ethyl (2S,6R)-2,6-dimethyl-4-(5-(trifluoromethyl)pyrimidin-2-yl)piperazine-1-carboxylate] registered an IC50 of 0.71 nM. For `C[C@H]1CN(c2ncc(C(F)(F)F)cn2)C[C@H](C)N1C(=O)OCCc1c[nH]c(=O)c(C(F)(F)F)c1` [Example 145, 2-(6-Oxo-5-(trifluoromethyl)-1,6-dihydropyridin-3-yl)ethyl (2S,6S)-2,6-dimethyl-4-(5-(trifluoromethyl)pyrimidin-2-yl)piperazine-1-carboxylate], it took 2.3 nM to reach half-maximal inhibition (IC50). Compared with the last molecule, the IC50 is about 3.2-fold higher.

`O=C(OCCc1c[nH]c(=O)c(C(F)(F)F)c1)N1CCN(c2ncc(C(F)(F)F)cn2)C[C@H]1CO` [Example 110, 2-(6-Oxo-5-(trifluoromethyl)-1,6-dihydropyridin-3-yl)ethyl (S)-2-(hydroxymethyl)-4-(5-(trifluoromethyl)pyrimidin-2-yl)piperazine-1-carboxylate] displayed an IC50 of 0.65 nM.

`N#CC[C@@H]1CN(c2ncc(C(F)(F)F)cn2)CCN1C(=O)OCCc1c[nH]c(=O)c(C(F)(F)F)c1` [Example 128, 2-(6-Oxo-5-(trifluoromethyl)-1,6-dihydropyridin-3-yl)ethyl (R)-2-(cyanomethyl)-4-(5-(trifluoromethyl)pyrimidin-2-yl)piperazine-1-carboxylate] yielded an IC50 of 0.81 nM. The molecule `CC(OC[C@@H]1CCCN1c1c[nH]c(=O)c(C(F)(F)F)c1)C(=O)N1CCN(c2ncc(C(F)(F)F)cn2)CC1` (stereo partly shown) [Example 83] came in with an IC50 of 1.38 nM. Regarding `CC(Cc1c[nH]c(=O)c(C(F)(F)F)c1)OC(=O)N1CCN(c2ccc(C#N)cn2)CC1` (stereo not shown) [Example 64, 1-(6-Oxo-5-(trifluoromethyl)-1,6-dihydropyridin-3-yl)propan-2-yl 4-(5-cyanopyridin-2-yl)piperazine-1-carboxylate], the IC50 is 1.99 nM. On to `C[C@@H](Cc1c[nH]c(=O)c(C(F)(F)F)c1)OC(=O)N1CCN(c2ncc(C(F)F)cn2)CC1` [Example 50, (S)-1-(6-Oxo-5-(trifluoromethyl)-1,6-dihydropyridin-3-yl)propan-2-yl 4-(5-(difluoromethyl)pyrimidin-2-yl)piperazine-1-carboxylate], for which the IC50 was 0.52 nM. As for `C[C@H]1CN(c2ncc(C(F)(F)F)cn2)CCN1C(=O)OCCc1c[nH]c(=O)c(C(F)(F)F)c1` [Example 108, 2-(6-Oxo-5-(trifluoromethyl)-1,6-dihydropyridin-3-yl)ethyl (S)-2-methyl-4-(5-(trifluoromethyl)pyrimidin-2-yl)piperazine-1-carboxylate], the figure is 0.63 nM; as for `O=C(OCC1(c2c[nH]c(=O)c(C(F)(F)F)c2)CC1)N1CCN(c2ncc(C(F)(F)F)cn2)CC1` [Example 41, (1-(6-Oxo-5-(trifluoromethyl)-1,6-dihydropyridin-3-yl)cyclopropyl)methyl 4-(5-(trifluoromethyl)pyrimidin-2-yl)piperazine-1-carboxylate], 1.1 nM. `CC[C@@H]1CN(C(=O)OCCc2c[nH]c(=O)c(C(F)(F)F)c2)CCN1c1ncc(C(F)(F)F)cn1` [Example 123, 2-(6-Oxo-5-(trifluoromethyl)-1,6-dihydropyridin-3-yl)ethyl (R)-3-ethyl-4-(5-(trifluoromethyl)pyrimidin-2-yl)piperazine-1-carboxylate] gave an IC50 of 0.87 nM. Turning to `C[C@@H](Cc1c[nH]c(=O)c(C(F)(F)F)c1)OC(=O)N1CC[C@H](Nc2ncc(C(F)(F)F)cn2)C1` [Example 66, (S)-1-(6-Oxo-5-(trifluoromethyl)-1,6-dihydropyridin-3-yl)propan-2-yl (S)-3-((5-(trifluoromethyl)pyrimidin-2-yl)amino) pyrrolidine-1-carboxylate], it took 1.82 nM to reach half-maximal inhibition (IC50).

As for `O=C(CCOCCN1CCCc2c1cn[nH]c2=O)N1CCN(c2ncc(C(F)(F)F)cn2)CC1` [Example 13, 1-(2-(3-Oxo-3-(4-(5-(trifluoromethyl)pyrimidin-2-yl)piperazin-1-yl)propoxy)ethyl)-2,3,4,6-tetrahydropyrido[2,3-d]pyridazin-5(1H)-one], half-maximal inhibition (IC50) was put at 5.98 nM.

In turn, `C[C@@H]1CN(c2ncc(C(F)(F)F)cn2)[C@H](C)CN1C(=O)O[C@@H](C)Cc1c[nH]c(=O)c(C(F)(F)F)c1` [Example 161, (S)-1-(6-Oxo-5-(trifluoromethyl)-1,6-dihydropyridin-3-yl)propan-2-yl (2R,5R)-2,5-dimethyl-4-(5-(trifluoromethyl)pyrimidin-2-yl)piperazine-1-carboxylate] had an IC50 of 0.91 nM. `C[C@@H](Cc1c[nH]c(=O)c(C(F)(F)F)c1)OC(=O)N[C@@H]1CCN(c2ncc(C(F)(F)F)cn2)C1` [Example 52, (S)-1-(6-Oxo-5-(trifluoromethyl)-1,6-dihydropyridin-3-yl)propan-2-yl ((R)-1-(5-(trifluoromethyl)pyrimidin-2-yl)pyrrolidin-3-yl)carbamate] gave an IC50 of 1.18 nM. This IC50 and that of the molecule before are within 1.5-fold of each other.
